Several values for one entry are separate records, joined by “and”; a condition that tells them apart may be missing. Equal values may be shown once. Read-outs that look alike come from different tables or passages of the source.
Tests used:
[1] = Clinical plasma pharmacokinetics in patients, plasma concentration limit calculation; assay type: in vivo; conditions: average plasma concentration calculated from AUC0-24h in patients
Description: To select for clinically relevant doses, the clinically attainable drug concentration measured in the blood plasma of patients after treatment is used to calculate the concentration limit for in vitro experiments. […] The average drug concentration is calculated from the AUC0–24h and is implemented as the plasma concentration limit (PCL) which drug dose selection must remain below for in vitro experiments. If a drug is FDA approved, the AUC0–24h selected is the one corresponding to the recommended dose in clinical practice. If a drug is in clinical trials, the AUC0–24h selected is the one corresponding to the maximum tolerated dose in early stage clinical trials. Note, experiments were conducted with the most current PCL calculated from the AUC0–24h information available at the start of experiments (December 2017), see Table S4.

DLD1 tumors = experiment: Subcutaneous xenograft tumor growth; assay type: in vivo, Swiss nu/nu mice
Description: All procedures including animal use were performed in accordance with the Institutional Ethical Committee of Animal Care in Geneva and the Swiss Cantonal Veterinary Office (Authorization number GE‐136‐19). Briefly, female and male Swiss nu/nu mice aged 6–8 weeks were obtained from Charles River (Écully, France). For subcutaneous xenografts mice were inoculated in the left flank with 5x10^6 DLD1 or SW620 cells suspended in 100 µL of cell culture medium, supplemented with 1% FBS.
Drugs were administered through oral gavage based on average body weight of the males (100 µL/mouse) and females (80 µL/mouse) at various concentrations, see Tables S10 and S11.
Solution A: step (1) 30% PEG 400 + 5% propylene glycol + 0.5% Tween 80 and (2) 64.5% sterile H2O. Solution B: step (1) 10% DMSO, (2) 30% PEG 300 + 5% Tween 80 and (3) 55% sterile H2O. […] FOLFOX was administered as 6 mg/kg oxaliplatin two hours before administration of 90 mg/kg leucovorin and 50 mg/kg (DLD1) or 25 mg/kg (SW620) 5‐fluorouracil at day 1 and a repeat of 5‐fluorouracil dosing on day 2.
The Bliss independence model can be used to evaluate the drug interaction potential of a drug mixture. […] The model is based on the probability theory and requires the drug activity of each drug at the selected dose to predict the inhibition rate (IR) at additive doses.

[2] = Pharmacokinetics, dried blood spot LC-MS/MS, mice with DLD1 tumors; assay type: in vivo; conditions: for Tmax / AUC(0-t) / Cmax: Swiss Nu/nu, mouse, whole blood (dried blood spot), po, regorafenib 15, erlotinib 12.5, selumetinib 5, vemurafenib 75 mg/kg; for AUC(0-t) / Cmax: whole blood, mean ± SD; for AUC(0-t): oral, read-out: AUC0-24h
Description: The pharmacokinetic (PK) study was performed using the dried blood spot method. Mice were treated with CTRL, ODCs, and corresponding monotherapies as described above. To determine the disposition in blood in the first 24h, blood samples (5 µL/mouse) were collected from the tail vein (n = 4 mice) at 2h, 4h, 8h, and 24h time points and transferred onto paper (a filter paper 903 protein saver card from Whatman (MA, USA)). A disk with the entire spot was punched from the paper card and transferred to the HPLC vial tube. Hundred µL of MeOH containing a mix of internal standards was added, and the tube was vortex‐mixed for about 1 min before injecting 10 µL into the LC‐MS/MS system. The LC‐MS/MS system consisted of an API 4,000 triple quadrupole mass spectrometer (AB sciex, Concord, ON, Canada) controlled by analyst 1.6.1 software. The mass spectrometer was operated in the multiple reaction monitoring (MRM) mode with positive electrospray ionization. The instrument was coupled with an Agilent series 1100 (Waldbronn, Germany) LC system. Chromatography was performed on a Phenomenex Kinetex C18 analytical column (50 mm x 2.1 mm, 2.6 um; Torrance, CA, USA). The flow rate was 0.5 mL/min using gradient elution conditions. The method was fully validated before application to this pharmacokinetic study.

[3] = 0-24h; ref EPAR WC00033991; cited from earlier work
[4] = Serum and intratumor drug concentration at experimental endpoint, DLD1 model; assay type: in vivo, mice; conditions: for concentration at 1 h / Kp at 1 h: Swiss Nu/nu, mouse, oral; for concentration at 1 h: 1h post-treatment at endpoint (day 15); for Kp at 1 h: tumor vs serum, read-out: ratio tumor vs serum; for Kp at 1 h / ratio ODC vs single drug: DLD1 model
Description: At the experimental endpoint, plasma and tumors were collected 1h post‐treatment and part of the tumor tissue was used to determine the intratumor drug concentrations. Plasma and tumor samples were analyzed using the same LC‐MS/MS method used for drug determination in DBS. Before analysis, tumor tissues were homogenized in a 1 mL mixture of water/acetonitrile (30/70). Hundred uL of homogenates were transferred into new tubes and 50 µL of acetonitrile, as well as 50 µL of a mix of internal standards in MeOH were added. Tubes were vortexed and centrifuged for 10 min at 9,000 rpm. The supernatant (100 µL) was evaporated under nitrogen and reconstituted in 100 µL of acetonitrile with 0.1% formic acid/water with 0.1% formic acid (30/70). 10 µL was then injected into the LC‐MS/MS system. Plasma samples were spotted onto the same paper used for whole blood analysis and were extracted and analyzed using the same methods as used for DBS.

[5] = erlotinib 5 mg/kg, Exp 1, Day 11
[6] = erlotinib 12.5 mg/kg, Exp 1, Day 11
[7] = erlotinib 12.5 mg/kg, Exp 5, Day 16
[8] = erlotinib 12.5 mg/kg, Exp 7, Day 15
[9] = given as part of DLD1-specific ODC

SMILES: C#Cc1cccc(Nc2ncnc3cc(OCCOC)c(OCCOC)cc23)c1 [erlotinib]
- PCL (plasma concentration limit) [1]: 1.61 µM and 1.6 µM
- % CTRL (tumor volume) (DLD1 tumors; [5]): 104 72 27 % CTRL
- Volume (DLD1 tumors; [5]): 482 336 127 mm^3
- % CTRL (tumor volume) (DLD1 tumors; [6]): 87 35 13 % CTRL
- Volume (DLD1 tumors; [6]): 405 161 61 mm^3
- % CTRL (tumor volume) (DLD1 tumors; [7]): 66 28 12 % CTRL
- Volume (DLD1 tumors; [7]): 420 178 80 mm^3
- % CTRL (tumor volume) (DLD1 tumors; [8]): 98 44 22 % CTRL
- Volume (DLD1 tumors; [8]): 420 211 86 mm^3
- Tmax [2, 9]: 2 h
- AUC(0-t) [2, 9]: 22300 ± 5140 ng·h/mL
- Cmax [2, 9]: 3370 ± 2160 ng/mL
- Tmax ([2]; mono): 2 h
- AUC(0-t) ([2]; mono): 19600 ± 7660 ng·h/mL
- Cmax ([2]; mono): 2610 ± 860 ng/mL
- increase of AUC as part of the ODC vs single-drug treatment ([2]; mice with DLD1 tumors, AUC0-24h): 1.14 x
- AUC [3]: 15.2 mg*h/L EPAR WC00033991
- concentration at 1 h ([4]; serum, as part of ODC, regorafenib 15, erlotinib 12.5, selumetinib 5, vemurafenib 75 mg/kg, read-out: concentration serum): 3040 ± 910 ng/mL
- concentration at 1 h ([4]; serum, single drug, regorafenib 15, erlotinib 12.5, selumetinib 5, vemurafenib 75 mg/kg, read-out: concentration serum): 2330 ± 180 ng/mL
- concentration at 1 h ([4]; tumor (DLD1), as part of ODC, DLD1 tumor, doses as E156, read-out: concentration tumor): 7600 ± 3200 ng/g
- concentration at 1 h ([4]; tumor (DLD1), single drug, DLD1 tumor, doses as E156, read-out: concentration tumor): 3620 ± 140 ng/g
- Kp at 1 h ([4]; as part of ODC): 2.5
- Kp at 1 h ([4]; single drug): 1.55
- ratio ODC vs single drug ([4]; serum): 1.31
- ratio ODC vs single drug ([4]; tumor): 2.10

— paper PMC7607171, “Optimized low‐dose combinatorial drug treatment boosts selectivity and efficacy of colorectal carcinoma treatment” (Molecular Oncology, 2020)
